For 30 compounds, Ki results are on record in patent US6875761B2 (Eisai Co., Ltd., priority 1997, dated 2005).

Counter-ions that a name gives are not always drawn.

One test has as its target T1, serotonin 1A receptor (Rattus norvegicus, UniProt P19327).
T1 construct: To the receptor fraction of the hippocampus were added a test compound and 0.5 nM of [^3H]; 8-hydroxy-dipropylaminotetralin; from tissue; host or cells: rat hippocampus membrane fraction
T1 sequence (P19327 1-422): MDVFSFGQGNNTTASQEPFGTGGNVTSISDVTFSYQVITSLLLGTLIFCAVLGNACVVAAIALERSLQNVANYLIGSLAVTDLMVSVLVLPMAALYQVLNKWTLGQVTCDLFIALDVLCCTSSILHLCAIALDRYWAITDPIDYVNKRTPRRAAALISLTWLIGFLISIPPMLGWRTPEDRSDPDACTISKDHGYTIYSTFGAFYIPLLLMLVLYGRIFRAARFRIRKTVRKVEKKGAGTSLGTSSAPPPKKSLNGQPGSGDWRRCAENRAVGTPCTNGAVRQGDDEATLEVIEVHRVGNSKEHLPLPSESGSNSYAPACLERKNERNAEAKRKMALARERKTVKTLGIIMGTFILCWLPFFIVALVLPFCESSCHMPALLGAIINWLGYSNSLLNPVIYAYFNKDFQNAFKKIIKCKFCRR
In words: Binding test on [3H] 8-hydroxy-dipropylaminotetralin, hippocampus receptor fraction. Further details: species or system SD rats. As to conditions: rat hippocampus receptor fraction, 0.5 nM [3H] 8-OH-DPAT, room temperature 30 min; read-out: 5HT1.

The target in another test is T2, serotonin 2 receptor (Rattus norvegicus, UniProt P14842).
T2 construct: To the receptor fraction of the cerebral cortex were added a test compound and 0.3 nM of [^3H] ketanserin; from tissue; host or cells: rat cerebral cortex membrane fraction
As to the kind of experiment: Binding test on [3H] ketanserin, cerebral cortex receptor fraction. Further details: species or system SD rats. As to conditions: 0.3 nM [3H] ketanserin, 37° C. 15 min, read-out: 5HT2.

T2 sequence (P14842 whole entry): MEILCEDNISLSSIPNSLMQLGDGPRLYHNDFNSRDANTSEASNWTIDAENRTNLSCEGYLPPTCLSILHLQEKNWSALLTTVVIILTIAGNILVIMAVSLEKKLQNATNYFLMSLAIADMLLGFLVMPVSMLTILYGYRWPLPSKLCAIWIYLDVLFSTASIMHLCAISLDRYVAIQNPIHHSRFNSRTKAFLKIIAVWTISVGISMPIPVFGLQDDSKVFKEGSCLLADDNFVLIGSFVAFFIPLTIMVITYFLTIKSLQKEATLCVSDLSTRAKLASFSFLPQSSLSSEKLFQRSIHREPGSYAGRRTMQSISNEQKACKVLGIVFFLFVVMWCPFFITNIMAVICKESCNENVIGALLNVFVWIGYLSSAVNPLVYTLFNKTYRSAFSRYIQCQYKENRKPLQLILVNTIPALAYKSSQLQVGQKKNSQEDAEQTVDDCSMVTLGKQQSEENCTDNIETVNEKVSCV
Protocol for serotonin 1A receptor: (1) Binding test on serotonin 1A, serotonin 2 and α1 adrenalin receptors
The following reagents were employed in this test. • 1) Serotonin binoxalate (5-HT binoxalate, mfd. by Sigma Chemical Co.). • 2) Methysergide maleate (mfd. by RBI).
As radioisotope-labeled compounds, use was made of the following reagents (mfd. by NEN). • 3) [^3H] 8-Hydroxy-dipropylaminotetralin (8-OH-DPAT). • 4) [^3H]
(§1) Methysergide maleate was dissolved in distilled water before using.
(§2) Use was made of SD rats aged 6 to 8 weeks.
The rats were sacrificed by dcapitation to extirpate the cerebra. The hippocampus and cortex were separated therefrom and employed in the binding tests respectively on the serotonin 1A receptor and the serotonin 2 receptor.
The hippocampus was mixed with 50 times (on the wet weight basis) as much as 0.32 M sucrose solution while the cortex was mixed with 10 times as much the same solution. Each mixture was homogenized by using a Teflon glass homogenizer and centrifuged as 1,000× g for 10 min. The supernatant thus obtained was further centrifuged at 20,000× g for 20 min. The obtained precipitate was re-suspended in 50 times (based on the initial wet weight; in the case of the hippocampus) or 10 times (in the case of the cortex) as much a 50 Tris hydrochloride (pH 7.4) and incubated at room temperature for 30 min. After centrifuging at 20,000× g for 20 min, the obtained precipitate was further suspended and centrifuged twice each in the same manner. The precipitate thus obtained was suspended in 100 times (based on the initial wet weight; in the case of the hippocampus) or 20 times (in the case of the cortex) as much a 50 mM Tris hydrochloride solution (pH 7.4) to thereby give a receptor fraction. This receptor fraction was stored at −80° C. until using.
To the receptor fraction of the hippocampus were added a test compound and 0.5 nM of [^3H] 8-hydroxy-dipropylaminotetralin and the resultant mixture was incubated at room temperature for 30 min. Next, it was filtered through a glass filter with the use of a cell harvester. After washing the glass filter with 50 mM Tris hydrochloride (pH 7.4), the radioactivity of the receptor was measured with a liquid scintillation counter. The binding detected in the presence of 10 μM of serotonin binoxalate was referred to as the nonspecific binding.
(§3) IC50 was calculated by the probit method, while Ki was determined in accordance with the following formula: Ki=IC50(1+c/Kd) wherein c represents the concentration of the radioisotope-labeled compound, and Kd represents the dissociation constant of the radioisotope-labeled compound with respect to the receptor determined by Scatchard's analysis.
Protocol for serotonin 2 receptor: as §1, §2
The rats were sacrificed by dcapitation to extirpate the cerebra.
Each mixture was homogenized by using a Teflon glass homogenizer and centrifuged as 1,000× g for 10 min. The supernatant thus obtained was further centrifuged at 20,000× g for 20 min. […] After centrifuging at 20,000× g for 20 min, the obtained precipitate was further suspended and centrifuged twice each in the same manner. […] This receptor fraction was stored at −80° C. until using.
To the receptor fraction of the cerebral cortex were added a test compound and 0.3 nM of [^3H] ketanserin and the resultant mixture was incubated at 37° C. for 15 min. Next, it was filtered through a glass filter with the use of a cell harvester. After washing the glass filter with 50 mM Tris hydrochloride (pH 7.4), the radioactivity of the receptor was measured with a liquid scintillation counter. The binding detected in the presence of 1 μM of methysergide was referred to as the nonspecific binding.
as §3

On to `CCN1CCN(c2nc(-c3ccc(OC)c(CCCO)c3)cc3ccsc23)CC1` [Example 261, 5-[3-(3-hydroxypropyl)-4-methoxyphenyl]-7-(4-ethylpiperazin-1-yl)thieno[2,3-c]pyridine Oxalate], for which the Ki was 53.7 nM on serotonin 1A receptor and 0.06 nM on serotonin 2 receptor.

`CCN1CCN(c2nc(-c3ccc(CCCO)c(C#N)c3)cc3ccsc23)CC1` [Example 262, 5-[4-(3-hydroxypropyl)-3-cyanophenyl]-7-(4-ethylpiperazin-1-yl)thieno[2,3-c]pyridine Oxalate]: the figures for the Ki at serotonin 1A receptor and on serotonin 2 receptor were 9.04 nM and 0.25 nM, respectively.

Regarding `CCN1CCN(c2nc(-c3ccc(N4CCOCC4)nc3)cc3ccsc23)CC1` [Example 263, 5-[2-(4-morpholinyl)pyridin-5-yl]-7-(4-ethylpiperazin-1-yl)thieno[2,3-c]pyridine Hydrochloride], the Ki on serotonin 1A receptor stood at 6.42 nM; on serotonin 2 receptor it was 0.89 nM.

Turning to `CCN1CCN(c2nc(-c3ccc(N4CCSCC4)nc3)cc3ccsc23)CC1` [Example 264, 5-[2-(4-thiomorpholinyl)pyridin-5-yl]-7-(4-ethylpiperazine-1-yl)thieno[2,3-c]pyridine Hydrochloride], the Ki came to 61.3 nM at serotonin 1A receptor and 3.34 nM at serotonin 2 receptor.

As to `CCN1CCN(c2nc(-c3ccc(N4CCC(O)CC4)nc3)cc3ccsc23)CC1` [Example 265, 5-[2-(4-hydroxypiperidin-1-yl)pyridin-5-yl]-7-(4-ethylpiperazin-1-yl)thieno[2,3-c]pyridine Hydrochloride], the Ki came out at 9.73 nM at serotonin 1A receptor and 114 nM on serotonin 2 receptor.

As to `CCN1CCN(c2nc(-c3ccc(C4=CCOCC4)cc3)cc3ccsc23)CC1` [Example 266, 5-[4-(5,6-dihydro-2H-pyran-4-yl)phenyl]-7-(4-ethylpiperazin-1-yl)thieno[2,3-c]pyridine Hydrochloride], the Ki at serotonin 1A receptor was 97.3 nM; at serotonin 2 receptor, 13.8 nM.

As for `CCN1CCN(c2nc(-c3ccc(OC(C)COC)nc3)cc3ccsc23)CC1` (stereo not drawn) [Example 267, 5-[2-(2-methoxyethoxy-2-methyl)pyridin-5-yl]-7-(4-ethylpiperazin-1-yl)thieno[2,3-c]pyridine Hydrochloride], the Ki at serotonin 1A receptor amounted to 10.4 nM; at serotonin 2 receptor, 68.7 nM.

As to `CCN1CCN(c2nc(-c3ccc(OCCO)nc3)cc3ccsc23)CC1` [Example 268, 5-[2-(2-hydroxyethoxy)pyridin-5-yl]-7-(4-ethylpiperazin-1-yl)thieno[2,3-c]pyridine Oxalate], the Ki on serotonin 1A receptor was 16.5 nM; at serotonin 2 receptor it was 86 nM.

As to `CCN1CCN(c2nc(-c3ccc(OCCOC)nc3)cc3ccsc23)CC1` [Example 269, 5-[2-(2-methoxyethoxy)pyridin-5-yl]-7-(4-ethylpiperazin-1-yl)-thieno[2,3-c]pyridine hydrochloride], the Ki was 15.5 nM on serotonin 1A receptor and 58.4 nM on serotonin 2 receptor.

In the case of `CCN1CCN(c2nc(-c3ccc(C4=CCC(O)CC4)cc3)cc3ccsc23)CC1` (stereo not drawn) [Example 270, 5-[4-(4-hydroxycyclohexen-1-yl)phenyl]-7-(4-ethylpiperazin-1-yl)thieno[2,3-c]pyridine hydrochloride], the Ki came out at 43 nM at serotonin 1A receptor and 30.3 nM on serotonin 2 receptor.

In the case of `CCN1CCN(c2nc(-c3ccc(C(=O)CC(C)C)cc3)cc3ccsc23)CC1` [Example 272, 7-(1-ethylpiperazin-4-yl)-5-[4-(3-methylbutanoyl)phenyl]thieno[2,3-c]pyridine dihydrochloride], the Ki at serotonin 1A receptor was 160 nM; on serotonin 2 receptor, 22.4 nM.

On to `CCN1CCN(c2nc(-c3ccc(C(=O)NC4CCCCC4)cc3)cc3ccsc23)CC1` [Example 273, dihydrochloride], for which the Ki was 51.4 nM on serotonin 1A receptor and 9.11 nM at serotonin 2 receptor.

In the case of `COc1ccc(-c2cc3ccsc3c(N3CCN(CCO)CC3)n2)cc1` [Example 276, 5-(4-methoxyphenyl)-7-[4-(2-hydroxyethyl)piperazin-1-yl]thieno[2,3-c]pyridine hydrochloride], the Ki on serotonin 1A receptor stood at 160 nM; on serotonin 2 receptor, 0.45 nM.

In the case of `CCN1CCN(c2nc(-c3ccc(OC)cc3)cc3cscc23)CC1` [Example 277, 4-(4-ethylpiperazin-1-yl)-6-(4-methoxyphenyl)thieno[3,4-c]pyridine oxalate], the values for the Ki at serotonin 1A receptor and on serotonin 2 receptor were 71.4 nM and 52.1 nM, respectively.

Take `CCN1CCN(c2nc(-c3ccc(OCCO)cc3)cc3cscc23)CC1` [Example 278, 4-(4-ethylpiperazin-1-yl)-6-[4-(2-hydroxyethoxy)phenyl]thieno-[3,4-c]pyridine oxalate]: the Ki on serotonin 1A receptor came to 41.3 nM; at serotonin 2 receptor it was 4.61 nM.

Regarding `CN1CCN(c2nc(-c3ccc(OCCO)cc3)cc3sccc23)CC1` [Example 279, 4-(4-methylpiperazin-1-yl)-6-[4-(2-hydroxyethoxy)phenyl]thieno[3,2-c]pyridine hydrochloride], the Ki worked out at 76.4 nM at serotonin 1A receptor and 1.44 nM at serotonin 2 receptor.

Take `CCC(O)c1ccc(-c2cc3sccc3c(N3CCN(CC)CC3)n2)cc1` (stereo not drawn) [Example 282, 4-(4-ethylpiperazin-1-yl)-6-[4-(1-hydroxypropyl)phenyl]thieno-[3,2-c]pyridine oxalate]: the Ki at serotonin 1A receptor was 10.8 nM; on serotonin 2 receptor, 6.46 nM.

Regarding `CCCC(O)c1ccc(-c2cc3sccc3c(N3CCN(CC)CC3)n2)cc1` (stereo not drawn) [Example 283, 4-(4-ethylpiperazin-1-yl)-6-[4-1-hydroxybutyl)phenyl]thieno[3,2-c]pyridine oxalate], the Ki is 5.71 nM at serotonin 1A receptor and 6.43 nM on serotonin 2 receptor.

Take `CCN1CCN(c2nc(-c3cccc(OCCO)c3)cc3sccc23)CC1` [Example 284, 4-(1-ethylpiperazin-4-yl)-6-[3-(2-hydroxyethoxy)phenyl]thieno-[3,2-c]pyridine dihydrochloride]: the Ki at serotonin 1A receptor is 91.9 nM; on serotonin 2 receptor it was 75.9 nM.

Take `CCN1CCN(c2nc(-c3ccc(CCC(C)O)cc3)cc3sccc23)CC1` (stereo not drawn) [Example 285, 4-(1-ethylpiperazin-4-yl)-6-[4-(3-hydroxybutyl)phenyl]thieno[3,2-c]pyridine hydrochloride]: the Ki on serotonin 1A receptor is 22.2 nM; on serotonin 2 receptor it was 1.96 nM.

As to `CCN1CCN(c2nc(-c3ccc(OCC(C)O)cc3)cc3sccc23)CC1` (stereo not drawn) [Example 287, 4-(4-ethylpiperazin-1-yl)-6-[4-(2-hydroxypropoxy)phenyl]thieno[3,2-c]pyridine], the results for the Ki at serotonin 1A receptor and at serotonin 2 receptor were 27.9 nM and 0.87 nM, respectively.

With `CN1CCN(c2nc(-c3ccc(OCC(C)(C)O)cc3)cc3sccc23)CC1` [Example 288, 6-[4-(2-methyl-2-hydroxypropoxy)phenyl]-4-(4-methylpiperazin-1-yl)thieno[3,2-c]pyridine hydrochloride], the Ki at serotonin 1A receptor was determined as 80.9 nM; at serotonin 2 receptor it was 0.14 nM.

Consider `CCN1CCN(c2nc(-c3ccc(OCC(C)(C)O)cc3)cc3sccc23)CC1` [Example 290, 6-[4-(2-methyl-2-hydroxypropoxy)phenyl]-4-(4-ethylpiperazin-1-yl)thieno[3,2-c]pyridine dihydrochloride], for which the Ki at serotonin 1A receptor was 54.7 nM; on serotonin 2 receptor it was 1.35 nM.

Take `CCN1CCN(c2nc(-c3ccc(CCC(C)(C)O)cc3)cc3sccc23)CC1` [Example 291, 4-[4-ethylpiperazin-1-yl)-6-[4-(3-hydroxy-3-methylbutyl)phenyl]thieno[3,2-c]pyridine dihydrochloride]: the Ki at serotonin 1A receptor came to 43.3 nM; on serotonin 2 receptor, 1.44 nM.

Take `CCN1CCN(c2nc(-c3ccc(OCCCC(C)(C)O)cc3)cc3sccc23)CC1` [Example 292, 6-[4-(4-methyl-4-hydroxypentyloxy)phenyl]-4-(4-ethylpiperazin-1-yl)thieno[3,2-c]pyridine]: the figures for the Ki on serotonin 1A receptor and at serotonin 2 receptor were 68.6 nM and 22.4 nM, respectively.

Take `CCN1CCN(c2nc(-c3cccc(OCCO)c3)cc3ccoc23)CC1` [Example 298, 7-(1-ethylpiperazin-4-yl)-5-[3-(2-hydroxyethoxy)phenyl]furo[2,3-c]pyridine dihydrochloride]: the Ki at serotonin 1A receptor was 1.72 nM; on serotonin 2 receptor it was 5.37 nM.

Consider `CCN1CCN(c2nc(-c3ccc(CCCO)cc3)cc3ccoc23)CC1` [Example 299, 7-(1-ethylpiperazin-4-yl)-5-[4-(3-hydroxypropyl)phenyl]furo[2,3-c]pyridine dihydrochloride], for which the Ki was 0.37 nM at serotonin 1A receptor and 30.1 nM at serotonin 2 receptor.

For `CCN1CCN(c2nc(-c3ccc(OCCO)cc3)cc3ccoc23)CC1` [Example 301, 7-(1-Ethylpiperazin-4-yl)-5-[4-(2-hydroxyethoxy)phenyl]furo[2,3-c]pyridine oxalate], the Ki on serotonin 1A receptor came to 9.15 nM; at serotonin 2 receptor, 12.7 nM.

Consider `CCN1CCN(c2nc(-c3ccc(O[C@H](C)CO)cc3)cc3ccoc23)CC1` [Example 302, 7-(1-ethylpiperazin-4-yl)-5-{4-[(R)-2-hydroxy-1-methylethoxy]phenyl}furo[2,3-c]pyridine dihydrochloride], for which the Ki at serotonin 1A receptor came to 0.53 nM; on serotonin 2 receptor it was 30 nM.

As for `CCN1CCN(c2nc(-c3ccc(O[C@@H](C)CO)cc3)cc3ccoc23)CC1` [Example 303, 7-(1-ethylpiperazin-4-yl)-5-{4-[(S)-2-hydroxy-1-methylethoxy]phenyl}furo[2,3-c]pyridine dihydrochloride], the figures for the Ki on serotonin 1A receptor and at serotonin 2 receptor were 0.53 nM and 44.4 nM, respectively.
